Source: US20230123334A1, “AMINO LIPID COMPOUND, PREPARATION METHOD THEREFOR, AND APPLICATION THEREOF” (SHENZHEN SHENXIN BIOTECHNOLOGY CO., LTD., priority 2020, published 2023)

Assays:
Format in all cases: cell-based
Hela cells [1] = assay: Transfection of Hela cell line, DNA vectors; conditions: 75 ng plasmid DNA, GFP cells / total cells
How it was run: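 Amino lipid/DOPE liposomes in sodium acetate pH 5.6 were complexed with 75 ng psin-EGFP-IRES-Puro plasmid for 30 min at room temperature, then mixed with 3-5×10^4 Hela cells in DMEM/10% FBS at 37° C. Hoechst stain after 20-24 h, imaging after a further 20-24 h. Efficiency = GFP-positive cells / total nuclei.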

Hela cells [2] = assay: Transfection of Hela cell line, mRNA vectors; conditions: 50 ng EGFP mRNA per well
How it was run: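 HeLa cells in DMEM with 10% FBS transfected with 50 ng EGFP mRNA per well. Readout is percentage of GFP-positive cells among total cells counted by Hoechst nuclear stain; Lipofectamine2000 served as positive control.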

MCF7 cells [3] = assay: Transfection of MCF7 cell line, DNA vectors; design: concentration or dose not given beside the values; conditions: plasmid DNA, GFP cells / total cells
How it was run: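 MCF7 cells in DMEM with fetal bovine serum were transfected in 96-well format. Read-out was the percentage of GFP-fluorescent cells among total cells counted by Hoechst nuclear stain. Lipofectamine2000 served as positive control.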

MCF7 cells [4] = assay: Transfection of MCF7 cell line, mRNA vectors; conditions: 50 ng EGFP mRNA per well
How it was run: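 MCF7 cells in DMEM with fetal bovine serum were transfected with 50 ng EGFP mRNA per well. Read-out was the percentage of GFP-positive cells among total Hoechst-stained nuclei, with Lipofectamine2000 as positive control.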

[5] = tested on: embryonic stem cells (hESC2); assay: Screening as DNA vectors in embryonic stem cells, flow cytometry; conditions: 75 ng plasmid DNA, 48 hours after transfection, flow cytometer
How it was run: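 hESC2 cells in mTeSR1 on matrigel transfected with 75 ng pSin-EGFP-IRES-Puro complexed with amino lipid/DOPE liposomes formed in sodium acetate pH 5.6; 37 °C, 5% CO2. After 48 h, GFP-positive cells counted by flow cytometry (≥2000 cells), efficiency also expressed relative to Lipofectamine Stem.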

[6] = tested on: embryonic stem cells (hESC2); assay: Screening as mRNA vectors in embryonic stem cells; conditions: 50 ng EGFP mRNA per well
How it was run: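 EGFP mRNA (50 ng per well) transfected into hESC2 cells grown in mTeSR1; Lipofectamine Stem served as positive control. Read-out: GFP-fluorescent cells as percentage of total cells.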

cardiomyocytes [7] = assay: Screening as DNA vectors in cardiomyocytes; design: concentration or dose not given beside the values; conditions: method as Example 4
How it was run: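 hESC-derived cardiomyocytes in DMEM with 10% FBS were transfected with a GFP DNA vector; Lipofectamine Stem served as positive control. Read-out: percentage of GFP-positive cells relative to total cells counted by Hoechst nuclear stain.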

cardiomyocytes [8] = assay: Screening as mRNA vectors in cardiomyocytes; conditions: 50 ng EGFP mRNA per well
How it was run: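 Cardiomyocytes differentiated from hESC, in DMEM with 10% FBS, were transfected with 50 ng EGFP mRNA per well. The read-out was GFP-positive cells as a percentage of Hoechst-stained nuclei, with Lipofectamine Stem as positive control.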

Compound	Absolute DNA transfection efficiency in Hela cells (Hela cells [1]) [%]	Absolute mRNA transfection efficiency in Hela cells (Hela cells [2]) [%]	Absolute DNA transfection efficiency in MCF7 cells (MCF7 cells [3]) [%]	Absolute mRNA transfection efficiency in MCF7 cells (MCF7 cells [4]) [%]	Absolute DNA transfection efficiency in embryonic stem cells [5] [%]	Absolute mRNA transfection efficiency in embryonic stem cells [6] [%]	Absolute DNA transfection efficiency in cardiomyocytes (cardiomyocytes [7]) [%]	Absolute mRNA transfection efficiency in cardiomyocytes (cardiomyocytes [8]) [%]
CCCCCCCCCCCCNc1nc(NCCCN(C)C)nc(SCCCCCCCCC)n1 [Compound S9N12D6]	35.5	35.5	21.8	22.4	1.9	6.1	1.7	5.3
CCCCCCCCCCCCSc1nc(NCCCN2CCOCC2)nc(SCCCCCCCC)n1 [Compound S8S12D8]	17.2	17.2	37.7	14.0	5.9	0.7	1.9	0.7
CCCCCCCCCCCNc1nc(NCCCN2CCN(C)CC2)nc(SCCCCCCCC)n1 [Compound S8N11D9]	31.9	31.9	45.4	6.6	0.5	1.0	0.6	31.6
CCCCCCCCCCCSc1nc(NCCN2CCCC2)nc(SCCCCCCCC)n1 [Compound S8S11D3]	3.3	3.3	2.7	20.4	0.7	21.4	1.9	21.0
CCCCCCCCCCCSc1nc(NCCCCCCCC)nc(NCC2CCN(C)CC2)n1 [Compound S11N8D10]	16.7	16.7	25.6	38.9	12.6	35.4	6.6	41.7
CCCCCCCCCCCSc1nc(NCCCCCCCC)nc(NCCCN2CCN(C)CC2)n1 [Compound S11N8D9]	11.7	11.9	20.9	42.3	3.6	34.8	0.1	25.8
CCCCCCCCCCCSc1nc(NCCCCCCCCC)nc(NCCCN2CCN(C)CC2)n1 [Compound S11N9D9]	11.8	11.8	33.5	27.3	1.4	33.5	0.3	21.0
